In brackets after ≈: the same amount, converted by molar mass.
Experiments:
Type in all cases: physicochemical
[1] = Radiochemical purity of ^18F-AV-45 Injection with and without sodium ascorbate (HPLC with radiometric detection)
Protocol: The ^18F-AV-45 radiopharmaceutical compositions of embodiments of the invention are remarkably stable to radiolysis or chemical degradation. Sodium ascorbate is used to minimize radiolysis during the purification of ^18F-AV-45 and in the final drug product solution to increase stability and shelf life. Ethanol at 1-10% (v/v) in aqueous solution aids in the solubilization of ^18F-AV-45. […] The compositions were analyzed at end-of-synthesis (EOS) using reverse HPLC, equipped with both an ultra violet (UV) detector and radiochemical detector. The radiochemical purity of ^18F-AV-45 was monitored by HPLC with radiometric detection and the purity of ^19F-AV-45 was monitored by HPLC UV detection in the drug product by Area Percent Normalization. At EOS, the radiochemical purity of the ^18F-AV-45 composition prepared without sodium ascorbate was 84% and decomposed further such that at 2 hours the purity was 80%. […] At EOS, the purity was 96% with negligible decomposition at 2 hours post EOS (purity of 95%).

[2] = Stability of ^18F-AV-45 drug product in vials, upright and inverted, at ambient, 40° C. and 50° C. over 12 hours; conditions: three lots
Protocol: The stability of the drug product was evaluated on three separate manufacturing lots of ^18F-AV-45. Vials were stored upright and inverted at ambient and 40° C. temperatures, and upright at 50° C. Drug product was sampled at the specified intervals over a 12 hour testing period and evaluated for radiochemical purity and strength.

[3] = Extended stability of ^18F-AV-45 Injection formulated with sodium ascorbate at 0.5% (% RCP)
Protocol: (§1) The ^18F-AV-45 radiopharmaceutical compositions of embodiments of the invention are remarkably stable to radiolysis or chemical degradation. Sodium ascorbate is used to minimize radiolysis during the purification of ^18F-AV-45 and in the final drug product solution to increase stability and shelf life. Ethanol at 1-10% (v/v) in aqueous solution aids in the solubilization of ^18F-AV-45. […] The compositions were analyzed at end-of-synthesis (EOS) using reverse HPLC, equipped with both an ultra violet (UV) detector and radiochemical detector. The radiochemical purity of ^18F-AV-45 was monitored by HPLC with radiometric detection and the purity of ^19F-AV-45 was monitored by HPLC UV detection in the drug product by Area Percent Normalization.
As noted, the radiochemical purity of the ^18F compound is maintained for up to approximately 20 hours after production.

[4] = UV purity of ^19F-AV-45 in ^18F-AV-45 Injection (HPLC UV detection at 350 nm, area percent)
Protocol: as §1

[5] = Solubility of AV-45 in the drug product composition (visual inspection, HPLC after centrifugation)
Protocol: The ^18F-AV-45 radiopharmaceutical formulation/composition was evaluated for the solubility of the non-radioactive ^19F-AV-45, which is also formed in quantities of 1-5 μg/mL during the radiosynthesis of ^18F-AV-45 due to the presence of small quantities of ^19F-fluoride from tubing, valves and other sources in the radiosynthesis system. In the absence of ethanol in the composition, particulate matter may be observed due to the low solubility of ^19F-AV-45. The addition of 10% ethanol to the radiopharmaceutical composition was, therefore, evaluated to determine if the solubility of ^19F-AV-45 was sufficient to avoid the potential of precipitate formation. […] A visible precipitate was noticeable in solutions with concentrations ≧22 μg/mL. Samples prepared at concentrations ≦20 μg/mL were evaluated by HPLC analysis following centrifugation. Samples with ≦20 μg/mL were also tested after storage for one week at ambient temperature.

[6] = lot AV4520080304, manufactured without sodium ascorbate (444 MBq/mL), EOS
[7] = lot AV4520080603, manufactured with sodium ascorbate (1036 MBq/mL), EOS

% ^18F AV-45 Purity (radiochemical) ([1]; lot AV4520080304, manufactured without sodium ascorbate (444 MBq/mL), 2-hour post EOS) | % ^18F AV-45 Purity (radiochemical) ([1]; lot AV4520080304, manufactured without sodium ascorbate (444 MBq/mL), 2-hour post EOS, listed as 18F AV-45) | % ^18F AV-45 Purity (radiochemical) [1, 6] | % ^18F AV-45 Purity (radiochemical) ([1]; lot AV4520080304, manufactured without sodium ascorbate (444 MBq/mL), EOS, listed as 18F AV-45) | % ^18F AV-45 Purity (radiochemical) ([1]; lot AV4520080603, manufactured with sodium ascorbate (1036 MBq/mL), 2-hour post EOS) | % ^18F AV-45 Purity (radiochemical) ([1]; lot AV4520080603, manufactured with sodium ascorbate (1036 MBq/mL), 2-hour post EOS, listed as 18F AV-45) | % ^18F AV-45 Purity (radiochemical) [1, 7] | % ^18F AV-45 Purity (radiochemical) ([1]; lot AV4520080603, manufactured with sodium ascorbate (1036 MBq/mL), EOS, listed as 18F AV-45) | RCP over 12 hours ([2]; 10% (v/v) ethanol in normal saline, 0.5% (w/v) sodium ascorbate, vials upright and inverted at ambient and 40° C., upright at 50° C.) | drift of the drug product strength ([2]; over 12 hours, all temperatures tested (ambient, 40° C., 50° C.)) | time after production for which radiochemical purity is maintained ([3]; approximately 10% (v/v) ethanol in normal saline containing 0.5% (w/v) sodium ascorbate) | RCP (stability maintained) ([3]; composition comprising ethyl alcohol and sodium ascorbate, up to 20 hours post-production) | UV purity by area percent at 350 nm ([4]; lot AV4520080304, manufactured without sodium ascorbate (444 MBq/mL), 2-h post EOS) | UV purity by area percent at 350 nm [4, 6] | UV purity by area percent at 350 nm ([4]; lot AV4520080603, manufactured with sodium ascorbate (1036 MBq/mL), 2-h post EOS) | UV purity by area percent at 350 nm [4, 7] | solubility limit ([5]; 10% (v/v) EtOH and 0.5% (w/v) sodium ascorbate in 0.9% aqueous sodium chloride, ambient temperature) | concentrations at which a visible precipitate was noticeable ([5]; drug product composition (10% EtOH, 0.5% sodium ascorbate, 0.9% NaCl)) | change in concentration after one week of storage ([5]; samples ≦20 μg/mL, ambient temperature, HPLC) | SMILES
80% | 80% | 84% | 84% | 95% | 95% | 96% | 96% | constant | < 5% | approximately 20 hours | greater than 90% |  |  |  |  |  |  |  | CNc1ccc(/C=C/c2ccc(OCCOCCOCC[18F])nc2)cc1 [^18F-AV-45, (E)-4-(2-(6-(2-(2-(2-[^18F]fluoroethoxy)ethoxy)ethoxy)pyridin-3-yl)vinyl)-N-methylbenzenamine]
 |  |  |  |  |  |  |  |  |  |  |  | 76% | 83% | 100% | 100% | 17 µg/mL (≈ 47.2 µM) | ≥ 22000 ng/mL | no change in concentration | CNc1ccc(/C=C/c2ccc(OCCOCCOCCF)nc2)cc1 [^19F-AV-45]

— patent US20100172836A1, “SYNTHESIS OF 18F-RADIOLABELED STYRYLPYRIDINES FROM TOSYLATE PRECURSORS AND STABLE PHARMACEUTICAL COMPOSITIONS THEREOF” (AVID RADIOPHARMACEUTICALS, INC., priority 2008, published 2010)
